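Growth conditions: 96-well plates. Treatment: test compound, 48 hours, 5 concentrations. Analysis: linear interpolation between bracketing concentrations; unreached endpoints set to highest concentration. TGI is the concentration that stops growth completely.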
Tests used:
Assay in all cases: inhibition of tumour cell growth, NCI panel, 48 h
HOP-62 NSCLC = system: HOP-62 NSCLC
NCI-H226 lung = system: NCI-H226 lung
IGROV1 ovarian = system: IGROV1 ovarian
HT29 colon = system: HT29 colon
HL-60(TB) leukemia = system: HL-60(TB) leukemia
KM12 colon = system: KM12 colon
NCI-H522 lung = system: NCI-H522 lung
786-0 renal = system: 786-0 renal
HCT-15 colon = system: HCT-15 colon
NCI-H460 lung = system: NCI-H460 lung
K-562 leukemia = system: K-562 leukemia
TK-10 renal = system: TK-10 renal
OVCAR-3 ovarian = system: OVCAR-3 ovarian
MDA-MB-231 breast = system: MDA-MB-231 breast
T-47D breast = system: T-47D breast
PC-3 prostate = system: PC-3 prostate

Structure (SMILES)	TGI (HOP-62 NSCLC) [µM]	TGI (NCI-H226 lung) [µM]	TGI (IGROV1 ovarian) [µM]	TGI (HT29 colon) [µM]	TGI (HL-60(TB) leukemia) [µM]	TGI (KM12 colon) [µM]	TGI (NCI-H522 lung) [µM]	TGI (786-0 renal) [µM]	TGI (HCT-15 colon) [µM]	TGI (NCI-H460 lung) [µM]	TGI (K-562 leukemia) [µM]	TGI (TK-10 renal) [µM]	TGI (OVCAR-3 ovarian) [µM]	TGI (MDA-MB-231 breast) [µM]	TGI (T-47D breast) [µM]	TGI (PC-3 prostate) [µM]
COc1ccc([N-]/C(=N\n2c(=O)c(C)nn(C)c2=S)N(c2ccc(OC)cc2)c2nn3c(=O)c(C)n[n+](C)c3s2)cc1	> 100	> 100	> 100	> 100	> 100	> 100	> 100	> 100	> 100	> 100	> 100	–	–	–	–	–
NCC(NC(=O)OCc1ccccc1)C(=O)O (stereo not drawn)	> 50	> 50	> 50	> 50	> 50	> 50	> 50	> 50	> 50	> 50	> 50	> 50	> 50	–	–	–
CC(C)OP(=O)(OC(C)C)/C(=N/N)NNc1ccc([N+](=O)[O-])cc1	> 100	> 100	–	–	> 100	> 100	> 100	> 100	> 100	> 100	> 100	> 100	> 100	–	–	–
O=c1cc(CC(O)(C(F)(F)Cl)C(F)(F)Cl)[nH]n1-c1ccccc1	> 100	> 100	> 100	> 100	> 100	> 100	–	> 100	> 100	> 100	> 100	> 100	–	> 100	> 100	–
CCOc1ccc(N=Nc2ccc3oc(=O)c(C(=O)Nc4ccc(OC)cc4)cc3c2)cc1	63.6	–	> 100	> 100	20.4	> 100	87.8	93.9	> 100	–	> 100	> 100	67	–	–	–
CC1(C)C2CCC3(OCCO3)C1C1OC12 (stereo not drawn)	–	> 100	–	> 100	> 100	> 100	> 100	> 100	> 100	> 100	> 100	> 100	> 100	–	–	–
O=c1c2cc(Br)cc(Br)c2[nH]c(=S)n1-c1ccccc1	> 100	> 100	> 100	> 100	–	> 100	–	> 100	> 100	> 100	> 100	> 100	> 100	–	–	–
CSc1ccc2c(cc1=O)C(NC(=O)c1ccc(OC(C)=O)cc1)CCc1cc(O)c(O)c(O)c1-2 (stereo not drawn)	> 100	50.8	–	37.9	21.9	> 100	28.8	> 100	34.9	50.4	7.53	> 100	44.5	–	–	–
CC(C)c1cccc(C(C)C)c1NC(=O)C(=O)C(C(=O)c1ccc2ccccc2c1)C1OC(=O)c2ccccc21 (stereo not drawn)	> 100	81.5	> 100	> 100	–	> 100	> 100	> 100	> 100	> 100	> 100	–	> 100	–	–	–
NC(=S)N1N=C2c3ccccc3CC[C@H]2[C@@H]1c1cccs1	> 100	> 100	> 100	73.3	42.8	> 100	56.1	> 100	> 100	> 100	35.5	> 100	> 100	–	–	–
CSc1nc2c(N)ncnc2n1C	> 100	> 100	> 100	> 100	–	> 100	> 100	> 100	> 100	> 100	> 100	> 100	> 100	> 100	> 100	> 100
COc1ccc(C2ON(c3ccccn3)CC=C2C)cc1 (stereo not drawn)	> 100	> 100	> 100	> 100	> 100	> 100	> 100	> 100	> 100	> 100	> 100	–	> 100	–	–	–
O=C1c2nn(-c3ccccc3)nc2C(c2ccccc2)N1c1ccccc1 (stereo not drawn)	96.6	> 100	> 100	> 100	–	> 100	> 100	> 100	> 100	> 100	> 100	–	> 100	–	–	–
O=C1C2CCC(C2)C12CC1(c3ccccc3)C(=O)c3ccccc3N1O2 (stereo not drawn)	> 100	> 100	> 100	> 100	> 100	–	> 100	> 100	> 100	–	> 100	–	–	–	–	–
CC(C)C(=O)/C=C/c1ccc(Cl)cc1	–	–	46.3	31.7	28.8	23.8	30.4	23.1	–	42.3	15.6	–	28	–	–	–
